One molecule from patent EP0307279A2, “Use of (5-amino-2-(4-methyl-1-piperidinyl)phenyl)-(4-chlorophenyl)methanone as an antiviral agent” (FOURNIER INNOVATION ET SYNERGIE, priority 1987, dated 1989) can be followed below.

What all share (format): cell-based
In assay [1] the test system is virus HIV 1. The experiment in a line: Protocol 1: pre-treatment of human lymphocytes before HIV 1 infection, reverse transcriptase activity in culture supernatant. The protocol:
(§1) Pour chacun des trois protocoles qui suivent, on a préparé une solution mère de (5-amino-2-(4-méthyl-1-pipéridinyl)phényl)-(4-chlorophényl)-méthanone à 100 mg/l dans de l'eau physiologique contenant 9 g/l de chlorure de sodium et acidifiée à pH=3 par de l'acide chlorhydrique. La solution mère est ensuite diluée dans un milieu RPMI 1640 jusqu'à la concentration désirée. La solution ainsi obtenue est stérilisée par filtration sur membrane "MILLIPORE" ayant un diamètre moyen de pores de 0,22 m.
(§2) A partir de cellules T lymphoblastoïdes (lignée CEM) infectées par un virus HIV et donc susceptibles de produire ledit virus HIV, on recueille ce dernier par des moyens appropriés à partir d'un surnageant de culture desdites cellules.
(§3) Les cellules utilisées sont des lymphocytes de sujets normaux HIV négatifs isolés à partir du sang périphérique par gradient de Ficoll puis stimulés pendant trois jours par de la phytohémagglutinine p (en abrégé pHAp) avant leur utilisation.
Les lymphocytes sont ensuite cultivés dans le milieu RPMI 1640 contenant 10 % de sérum de veau foetal, 10 % d'interleukine II, 2 g/ml de polybrène, 1 % de glutamine, 1 % d'antibiotiques et une dilution au 1/2500 de sérum anti-interféron humain. […]

The subject of assay [2] is virus HIV 1. Description: Protocol 2: treatment of human lymphocytes during HIV 1 adsorption, reverse transcriptase activity in culture supernatant. As for the experimental part:
as §1, §2, §3
(§4) Les lymphocytes sont ensuite cultivés dans le milieu RPMI 1640 contenant 10 % de sérum de veau foetal, 10 % d'interleukine II, 2 g/ml de polybrène, 1 % de glutamine, 1 % d'antibiotiques et une dilution au 1/2500 de sérum anti-interféron humain.
(§5) La production du virus HIV par des cellules T humaines traitées ou non par le produit a été régulièrement suivie par mesure de l'activité transcriptase inverse, représentative de la réplication virale, et présente dans 1 ml de surnageant de culture. On concentre 100 fois 1 ml de surnageant par ultracentrifugation puis on détermine l'activité enzymatique de cet échantillon dans 50 l d'un mélange réactionnel contenant 50 mM de tampon tris (hydroxyméthylaminométhane) de pH=7,9, 20 mM de KCl, 5 mM de MgCl₂, 1 mM de 1,4-dithiothréitol, 0,05 unité de densité optique par ml d'acide polyadénylique (5′), 0,05 unité de densité optique par ml d'acide oligodéoxythymidylique 12-18, 5 Ci de ³HTTP et 0,1 % de Triton X 100. Après une heure d'incubation à 37°C, les produits acido-insolubles sont précipités par de l'acide trichloracétique à 20 %, filtrés sur "MILLIPORE" 0,45 m, puis la radioactivité contenue dans ces produits de réaction est mesurée à l'aide d'un compteur à scintillation Kontron.
(§6) Les figures 1 à 3 qui représentent l'activité transcriptase inverse (A exprimée en cpm/ml) en fonction du temps (t exprimé en nombre de jours), comprennent chacune quatre courbes : T représentant l'activité transcriptase inverse dans la culture témoin. C₁ représentant l'activité transcriptase inverse pour la culture traitée par une dose de 0,1 g/ml de produit. C₂ représentant l'activité transcriptase inverse pour la culture traitée par une dose de 0,05 g/ml de produit, et C₃ représentant l'activité transcriptase inverse pour la culture traitée par une dose de 0,01 g/ml de produit. […]

For assay [3], the system named is virus HIV 1. The experiment in a line: Protocol 3: treatment of human lymphocytes after HIV 1 adsorption (post-treatment), reverse transcriptase activity in culture supernatant. As for the experimental part: as §1, §2, §3, §4, §5, §6

As for `CC1CCN(c2ccc(N)cc2C(=O)c2ccc(Cl)cc2)CC1` [produit, (5-amino-2-(4-méthyl-1-pipéridinyl)phényl)-(4-chlorophényl)-méthanone], the “inhibition du pouvoir infectieux du virus HIV 1 (activité transcriptase inverse)” value in the assay on virus HIV 1 [1] (pre-treatment 18 h before infection, human lymphocytes, whatever the dose (0,1, 0,05, 0,01 µg/ml), figure 1) is recorded as “inhibition partielle”. In the assay on virus HIV 1 [1] (pre-treatment, whatever the dose, versus untreated control culture), the “retard dans l'apparition du pic de transcriptase inverse” value is recorded as “retard important”. The “inhibition du pouvoir infectieux du virus HIV 1” value is “maximale” in the assay with virus HIV 1 [2] (during viral adsorption, 0,1 µg/ml (curve C1)); “partielle” in the assay on virus HIV 1 [2] (during viral adsorption, 0,01 µg/ml (curve C3)); “partielle” with virus HIV 1 [2] (during viral adsorption, 0,05 µg/ml (curve C2)). The “inhibition du pouvoir infectieux du virus HIV 1 pour les cellules T humaines” value in the assay on virus HIV 1 [2] (product present during viral adsorption (1 h, 37°C), various concentrations (curves C1 to C3), figure 2) is listed as “inhibition très significative”. Moreover, the “inhibition de l'infection virale” value is listed as “très significative” with virus HIV 1 [3] (post-treatment for three passages after adsorption, 0,1 µg/ml (curve C1), figure 3); “partielle” in the assay with virus HIV 1 [3] (post-treatment, 0,01 µg/ml (curve C3)); “partielle” in the assay with virus HIV 1 [3] (post-treatment, 0,05 µg/ml (curve C2)). The “rapport des pics des courbes T et C₁ (activité transcriptase inverse)” value with virus HIV 1 [3] (post-treatment, 0,1 g/ml, control peak / treated peak) is given as roughly 10.
